Measured values: patent publication US10154990B2, “Medicaments for the treatment or prevention of fibrotic diseases” (Boehringer Ingelheim International GmbH, priority 2004, dated 2018)
Counter-ions that a name gives are not always drawn.

First: NC(CCO)(CCO)c1ccc(N/C(=C2\C(=O)Nc3cc(C(=O)O)ccc32)c2ccccc2)cc1 (as salt: Na) [(aq), 3-Z-[1-(4-(di-(2-hydroxy-ethyl)-amino-methyl)-anilino)-1-phenyl-methylene]-6-carboxy-2-indolinone]
Second: CNCc1ccc(N/C(=C2\C(=O)Nc3cc(C(=O)O)ccc32)c2ccccc2)cc1 [(an), 3-Z-[1-(4-methylaminomethyl-anilino)-1-phenyl-methylene]-6-carboxy-2-indolinone]
The melting point of the first is lower: 256 to 257 °C for the first, 287 °C for the second.

First: COC(=O)c1ccc2c(c1)NC(=O)/C2=C(\Nc1ccc(N(C)C(=O)CC2CCN(C)CC2)cc1)c1ccccc1 [(ad), 3-Z-[1-(4-(N-((1-methyl-piperidin-4-yl)-methylcarbonyl)-N-methyl-amino)-anilino)-1-phenyl-methylene]-6-methoxycarbonyl-2-indolinone]
Second: COC(=O)c1ccc2c(c1)NC(=O)/C2=C(\Nc1ccc(N(C)C(=O)N2CCN(C)CC2)cc1)c1ccccc1 [(ag), 3-Z-[1-(4-(N-((4-methyl-piperazin-1-yl)-carbonyl)-N-methyl-amino)-anilino)-1-phenyl-methylene]-6-methoxycarbonyl-2-indolinone]
The melting point of the first is lower: 190 to 193 °C for the first, 205 to 208 °C for the second.

Compared with COC(=O)c1ccc2c(c1)NC(=O)/C2=C(\Nc1ccc(NC(=O)CN2CCN(C)CC2)c(C)c1C)c1ccccc1 [(ae), 3-Z-[1-(2,3-dimethyl-4-(N-((4-methyl-piperazin-1-yl)-methylcarbonyl)-amino)-anilino)-1-phenyl-methylene]-6-methoxycarbonyl-2-indolinone], CN1CCN(Cc2ccc(N/C(=C3\C(=O)Nc4cc(C(=O)O)ccc43)c3ccccc3)cc2)CC1 [(am), 3-Z-[1-(4-(4-methylpiperazin-1-yl-methyl)-anilino)-1-phenyl-methylene]-6-carboxy-2-indolinone] is higher in melting point: 254 to 257 °C for the first, 275 °C for the second.

First: COC(=O)c1ccc2c(c1)NC(=O)/C2=C(\Nc1ccc(N(C)C(=O)NCCCN(C)C)cc1)c1ccccc1 [(ai), 3-Z-[1-(4-(N-((3-dimethylamino-propyl)-aminocarbonyl)-N-methyl-amino)-anilino)-1-phenyl-methylene]-6-methoxycarbonyl-2-indolinone]
Second: CCNC(=O)c1ccc2c(c1)NC(=O)/C2=C(\Nc1ccc(N(C)C(=O)CN(C)C)cc1)c1ccccc1 [(by), 3-Z-[1-(4-(N-dimethylaminomethylcarbonyl-N-methyl-amino)-anilino)-1-phenyl-methylene]-6-ethylcarbamoyl-2-indolinone]
The melting point of the first is higher: 166 to 170 °C for the first, 130 to 134 °C for the second.

First: O=C1Nc2cc(C(=O)O)ccc2/C1=C(/Nc1ccc(CN2CCOCC2)cc1)c1ccccc1 [(ao), 3-Z-[1-(4-(morpholin-4-yl-methyl)-anilino)-1-phenyl-methylene]-6-carboxy-2-indolinone]
Second: CN(C(=O)CN1CCOCC1)c1ccc(N/C(=C2\C(=O)Nc3cc(C(=O)O)ccc32)c2ccccc2)cc1 [(as), 3-Z-[1-(4-(N-(morpholin-4-yl-methylcarbonyl)-N-methyl-amino)-anilino)-1-phenyl-methylene]-6-carboxy-2-indolinone]
The melting point of the first is higher: 335 °C for the first, 237 to 238 °C for the second.

First: CN(C)CCN(c1ccc(N/C(=C2\C(=O)Nc3cc(C(=O)O)ccc32)c2ccccc2)cc1)S(C)(=O)=O [(ap), 3-Z-[1-(4-(N-(2-dimethylamino-ethyl)-N-methylsulphonyl-amino)-anilino)-1-phenyl-methylene]-6-carboxy-2-indolinone]
Second: CCNC(=O)c1ccc2c(c1)NC(=O)/C2=C(\Nc1ccc(N(CCN(C)C)S(C)(=O)=O)cc1)c1ccccc1 [(bw), 3-Z-[1-(4-(N-(2-dimethylamino-ethyl)-N-methylsulphonyl-amino)-anilino)-1-phenyl-methylene]-6-ethylcarbamoyl-2-indolinone]
The melting point of the first is higher: 280 °C for the first, 213 to 217 °C for the second.

First: CN(C)CCN(C)CC(=O)N(C)c1ccc(N/C(=C2\C(=O)Nc3cc(C(=O)O)ccc32)c2ccccc2)cc1 [(at), 3-Z-[1-(4-(N—(N-(2-dimethylamino-ethyl)-N-methyl-aminomethylcarbonyl)-N-methyl-amino)-anilino)-1-phenyl-methylene]-6-carboxy-2-indolinone]
Second: CCNC(=O)c1ccc2c(c1)NC(=O)/C2=C(\Nc1ccc(N(CCN(C)C)C(C)=O)cc1)c1ccccc1 [(ca), 3-Z-[1-(4-(N-(2-dimethylamino-ethyl)-N-acetyl-amino)-anilino)-1-phenyl-methylene]-6-ethylcarbamoyl-2-indolinone]
The melting point of the first is lower: 238 to 240 °C for the first, 266 to 270 °C for the second.

First: COC(=O)c1ccc2c(c1)NC(=O)/C2=C(\Nc1ccc(CN(C)C)cc1)c1cccc(CCC(=O)O)c1 [(aw), 3-Z-[1-(4-dimethylaminomethyl-anilino)-1-(3-(2-carboxy-ethyl)-phenyl)-methylene]-6-methoxycarbonyl-2-indolinone]
Second: COC(=O)c1ccc2c(c1)NC(=O)/C2=C(\Nc1ccc(CCN(C)C)cc1)c1cccc(CCC(=O)O)c1 [(ax), 3-Z-[1-(4-(2-dimethylamino-ethyl)-anilino)-1-(3-(2-carboxy-ethyl)-phenyl)-methylene]-6-methoxycarbonyl-2-indolinone]
The melting point of the first is lower: 163 to 167 °C for the first, 248 to 255 °C for the second.

Compared with COC(=O)c1ccc2c(c1)NC(=O)/C2=C(\Nc1ccc(-c2nccn2C)cc1)c1cccc(CCC(=O)O)c1 [(ay), 3-Z-[1-(4-(1-methyl-imidazol-2-yl)-anilino)-1-(3-(2-carboxy-ethyl)-phenyl)-methylene]-6-methoxycarbonyl-2-indolinone], COC(=O)c1ccc2c(c1)NC(=O)/C2=C(\Nc1ccc(CN(C)C)cc1)c1ccc(CCC(=O)O)cc1 [(az), 3-Z-[1-(4-dimethylaminomethyl-anilino)-1-(4-(2-carboxy-ethyl)-phenyl)-methylene]-6-methoxycarbonyl-2-indolinone] is higher in melting point: 184 to 190 °C for the first, 190 to 195 °C for the second.

First: CCNC(=O)c1ccc2c(c1)NC(=O)/C2=C(\Nc1ccc(OCCN(C)C)cc1)c1ccccc1 [(bu), 3-Z-[1-(4-(2-dimethylamino-ethoxy)-anilino)-1-phenyl-methylene]-6-ethylcarbamoyl-2-indolinone]
Second: CCNC(=O)c1ccc2c(c1)NC(=O)/C2=C(\Nc1ccc(CN(C)C)cc1)c1ccccc1 [(bz), 3-Z-[1-(4-dimethylaminomethyl-anilino)-1-phenyl-methylene]-6-ethylcarbamoyl-2-indolinone]
The melting point of the first is lower: 308 to 311 °C for the first, 341 to 344 °C for the second.

First: CCNC(=O)c1ccc2c(c1)NC(=O)/C2=C(\Nc1ccc(N(C)C(=O)CN2CCN(C)CC2)cc1)c1ccccc1 [(bv), 3-Z-[1-(4-(N-((4-methyl-piperazin-1-yl)-methylcarbonyl)-N-methyl-amino)-anilino)-1-phenyl-methylene]-6-ethylcarbamoyl-2-indolinone]
Second: CCN(CC)C(=O)c1ccc2c(c1)NC(=O)/C2=C(\Nc1ccc(N(C)C(=O)CN2CCN(C)CC2)cc1)c1ccccc1 [(ci), 3-Z-[1-(4-(N-((4-methyl-piperazin-1-yl)-methylcarbonyl)-N-methyl-amino)-anilino)-1-phenyl-methylene]-6-diethylcarbamoyl-2-indolinone]
The melting point of the first is higher: 279 to 283 °C for the first, 195 to 198 °C for the second.

First: CCNC(=O)c1ccc2c(c1)NC(=O)/C2=C(\Nc1ccc(N(CCCN(C)C)C(C)=O)cc1)c1ccccc1 [(cb), 3-Z-[1-(4-(N-(3-dimethylamino-propyl)-N-acetyl-amino)-anilino)-1-phenyl-methylene]-6-ethylcarbamoyl-2-indolinone]
Second: CCNC(=O)c1ccc2c(c1)NC(=O)/C2=C(\Nc1ccc(N(CCCN(C)C)S(C)(=O)=O)cc1)c1ccccc1 [(cn), 3-Z-[1-(4-(N-(3-dimethylamino-propyl)-N-methylsulphonyl-amino)-anilino)-1-phenyl-methylene]-6-ethylcarbamoyl-2-indolinone]
The melting point of the first is higher: 198 to 202 °C for the first, 171 to 175 °C for the second.

Compared with CCNC(=O)c1ccc2c(c1)NC(=O)/C2=C(\Nc1ccc(C(=O)N2CCN(C)CC2)cc1)c1ccccc1 [(cf), 3-Z-[1-(4-((4-methyl-piperazin-1-yl)-carbonyl)-anilino)-1-phenyl-methylene]-6-ethylcarbamoyl-2-indolinone], CCNC(=O)c1ccc2c(c1)NC(=O)/C2=C(\Nc1ccc(C(=O)N2CCN(CC)CC2)cc1)c1ccccc1 [(ck), 3-Z-[1-(4-((4-ethyl-piperazin-1-yl)-carbonyl)-anilino)-1-phenyl-methylene]-6-ethylcarbamoyl-2-indolinone] is lower in melting point: 288 to 292 °C for the first, 127 to 130 °C for the second.

First: CCNC(=O)c1ccc2c(c1)NC(=O)/C2=C(\Nc1ccc(C(=O)N2C[C@@H](C)N[C@@H](C)C2)cc1)c1ccccc1 [(cm), 3-Z-[1-(4-((cis-3,5-dimethyl-piperazin-1-yl)-carbonyl)-anilino)-1-phenyl-methylene]-6-ethylcarbamoyl-2-indolinone]
Second: CCNC(=O)c1ccc2c(c1)NC(=O)/C2=C\Nc1ccc(N(CCCN(C)C)C(C)=O)cc1 [(cu), 3-Z-[1-(4-(N-(3-dimethylamino-propyl)-N-acetyl-amino)-anilino)-methylene]-6-ethylcarbamoyl-2-indolinone]
The melting point of the first is higher: 217 to 220 °C for the first, 130 °C for the second.

Compared with COC(=O)c1ccc2c(c1)NC(=O)/C2=C\Nc1ccc(N(C)C(=O)CN(C)C)cc1 [(co), 3-Z-[1-(4-(N-dimethylaminomethylcarbonyl-N-methyl-amino)-anilino)-methylene]-6-methoxycarbonyl-2-indolinone], COC(=O)c1ccc2c(c1)NC(=O)/C2=C\Nc1ccc(CN(C)C)cc1 [(cp), 3-Z-[1-(4-dimethylaminomethyl-anilino)-methylene]-6-methoxycarbonyl-2-indolinone] is lower in melting point: 250 to 255 °C for the first, 234 to 238 °C for the second.

Compared with COC(=O)c1ccc2c(c1)NC(=O)/C2=C\Nc1ccc(N(C)C(=O)CN2CCN(C)CC2)cc1 [(cq), 3-Z-[1-(4-(N-((4-methyl-piperazin-1-yl)-methylcarbonyl)-N-methyl-amino)-anilino)-methylene]-6-methoxycarbonyl-2-indolinone], CCNC(=O)c1ccc2c(c1)NC(=O)/C2=C\Nc1ccc(CN2CCCCC2)cc1 [(ct), 3-Z-[1-(4-(piperidin-1-yl-methyl)-anilino)-methylene]-6-ethylcarbamoyl-2-indolinone] is higher in melting point: 203 to 207 °C for the first, 245 to 248 °C for the second.
